The structures appear in SMILES notation.

The assay addresses Human immunodeficiency virus type 1 protease (Human immunodeficiency virus 1, UniProt Q72874). The assay can be described thus: Inhibitory activity against HIV-1 protease.
With `Cc1cc(O)c(C)c(C(=O)N[C@@H](Cc2ccccc2)[C@H](O)C(=O)N2C[C@@H](Cl)C[C@H]2C(=O)NC(C)(C)C)c1`, the IC50 (commonly the concentration that gives 50% inhibition) worked out at 1.3 nM.
The compound `COc1cccc(C(=O)N[C@@H](Cc2ccccc2)[C@H](O)C(=O)N2C[C@@H](Cl)C[C@H]2C(=O)NC(C)(C)C)c1O` had an IC50 of 1000 nM.
In turn, `Cc1c(O)cccc1C(=O)N[C@@H](Cc1ccccc1)[C@H](O)C(=O)N1C[C@@H](Cl)C[C@H]1C(=O)NC(C)(C)C` showed an IC50 of 0.8 nM.
In turn, `CC(C)(C)NC(=O)[C@@H]1C[C@H](Cl)CN1C(=O)[C@@H](O)[C@H](Cc1ccccc1)NC(=O)c1cccc(O)c1Br` had a concentration for half-maximal inhibition (IC50) of 1.5 nM.
With `Cc1cc(O)c(C)c(C(=O)N[C@@H](Cc2cc(F)cc(F)c2)[C@H](O)C(=O)N2C[C@@H](Cl)C[C@H]2C(=O)NC(C)(C)C)c1`, the IC50 came to 1.2 nM.
The same measure for `Cc1c(O)cc(F)cc1C(=O)N[C@@H](Cc1cccc(C(F)(F)F)c1)[C@H](O)C(=O)N1C[C@@H](Cl)C[C@H]1C(=O)NC(C)(C)C`: 2.1 nM; for `Cc1ccc(C(=O)N[C@@H](Cc2cccc(C(F)(F)F)c2)[C@H](O)C(=O)N2C[C@@H](Cl)C[C@H]2C(=O)NC(C)(C)C)c(C)c1O`: 3.5 nM; for `Cc1ccc(O)c(C)c1C(=O)N[C@@H](Cc1ccc(C(F)(F)F)cc1)[C@H](O)C(=O)N1C[C@@H](Cl)C[C@H]1C(=O)NC(C)(C)C`: 3.9 nM.
The same measure for `Cc1ccc(O)c(C)c1C(=O)N[C@@H](Cc1ccccc1)[C@H](O)C(=O)N1C[C@@H](Cl)C[C@H]1C(=O)NC(C)(C)C`: 2.5 nM.
In turn, `Cc1cc(O)c(C)c(C(=O)N[C@@H](Cc2ccc3ccccc3c2)[C@H](O)C(=O)N2C[C@@H](Cl)C[C@H]2C(=O)NC(C)(C)C)c1` displayed an IC50 of 0.8 nM.
As to `Cc1ccc(C[C@H](NC(=O)c2ccc(C)c(O)c2C)[C@H](O)C(=O)N2C[C@@H](Cl)C[C@H]2C(=O)NC(C)(C)C)cc1`, the IC50 stood at 8.6 nM.
Compound `Cc1cc(O)c(C)c(C(=O)N[C@@H](Cc2cccc(C(F)(F)F)c2)[C@H](O)C(=O)N2C[C@@H](Cl)C[C@H]2C(=O)NC(C)(C)C)c1` came in with an IC50 of 1.9 nM.
In turn, `CC(C)(C)NC(=O)[C@@H]1C[C@H](Cl)CN1C(=O)[C@@H](O)[C@H](Cc1ccccc1)NC(=O)c1ccccc1O` registered a half-maximal inhibitory concentration (IC50) of 1000 nM.
In the case of `Cc1ccc(C(=O)N[C@@H](Cc2ccc3ccccc3c2)[C@H](O)C(=O)N2C[C@@H](Cl)C[C@H]2C(=O)NC(C)(C)C)c(C)c1O` it was 3.2 nM.
`Cc1cccc(C[C@H](NC(=O)c2ccc(C)c(O)c2C)[C@H](O)C(=O)N2C[C@@H](Cl)C[C@H]2C(=O)NC(C)(C)C)c1`: the IC50 amounted to 2.5 nM.
`Cc1ccc(C(=O)N[C@@H](Cc2ccc(C(F)(F)F)cc2)[C@H](O)C(=O)N2C[C@@H](Cl)C[C@H]2C(=O)NC(C)(C)C)c(C)c1O`: the IC50 is 6.3 nM.
In the case of `CC(C)(C)NC(=O)[C@@H]1C[C@H](Cl)CN1C(=O)[C@@H](O)[C@H](Cc1ccccc1)NC(=O)c1ccccc1Cl`, half-maximal inhibition (IC50) was put at 11 nM.
`Cc1ccccc1C[C@H](NC(=O)c1ccc(C)c(O)c1C)[C@H](O)C(=O)N1C[C@@H](Cl)C[C@H]1C(=O)NC(C)(C)C`: half-maximal inhibition (IC50) was put at 49.9 nM.
`Cc1cccc(C)c1C(=O)N[C@@H](Cc1ccccc1)[C@H](O)C(=O)N1C[C@@H](Cl)C[C@H]1C(=O)NC(C)(C)C` returned a concentration for half-maximal inhibition (IC50) of 3.6 nM.
The compound `CC(C)(C)NC(=O)[C@@H]1C[C@H](Cl)CN1C(=O)[C@@H](O)[C@H](Cc1ccccc1)NC(=O)c1ccccc1` came in with an IC50 of 26 nM.
As to `Cc1ccc(C(=O)N[C@@H](Cc2ccccc2)[C@H](O)C(=O)N2C[C@@H](Cl)C[C@H]2C(=O)NC(C)(C)C)c(C)c1O`, the midpoint of inhibition, the IC50, lay at 8.2 nM.
`Cc1ccc(O)c(C)c1C(=O)N[C@@H](Cc1ccc2ccccc2c1)[C@H](O)C(=O)N1C[C@@H](Cl)C[C@H]1C(=O)NC(C)(C)C` displayed an IC50 of 2.8 nM.
In turn, `CC(C)(C)NC(=O)[C@@H]1C[C@H](Cl)CN1C(=O)[C@@H](O)[C@H](Cc1ccccc1)NC(=O)c1ccc(O)cc1` gave a half-inhibitory concentration (IC50) of 33 nM.
Compound `CC(C)(C)NC(=O)[C@@H]1C[C@H](Cl)CN1C(=O)[C@@H](O)[C@H](Cc1ccccc1)NC(=O)c1ccccc1N` returned a concentration for half-maximal inhibition (IC50) of 39 nM.
Take `Cc1c(N)cccc1C(=O)N[C@@H](Cc1ccccc1)[C@H](O)C(=O)N1C[C@@H](Cl)C[C@H]1C(=O)NC(C)(C)C`: half-maximal inhibition (IC50) required 5.4 nM.
In turn, `Cc1ccc(C[C@H](NC(=O)c2c(C)ccc(O)c2C)[C@H](O)C(=O)N2C[C@@H](Cl)C[C@H]2C(=O)NC(C)(C)C)cc1` returned a half-inhibitory concentration (IC50) of 3.6 nM.
With `Cc1c(O)cc(F)cc1C(=O)N[C@@H](Cc1ccccc1)[C@H](O)C(=O)N1C[C@@H](Cl)C[C@H]1C(=O)NC(C)(C)C`, the midpoint of inhibition, the IC50, lay at 1.7 nM.
In the case of `Cc1ccc(O)c(C)c1C(=O)N[C@@H](Cc1cccc(C(F)(F)F)c1)[C@H](O)C(=O)N1C[C@@H](Cl)C[C@H]1C(=O)NC(C)(C)C` it was 4.6 nM.
The same measure for `CC(C)(C)NC(=O)[C@@H]1C[C@H](Cl)CN1C(=O)[C@@H](O)[C@H](Cc1ccccc1)NC(=O)c1ccccc1Br`: 12 nM.
The compound `CC(C)(C)NC(=O)[C@@H]1C[C@H](Cl)CN1C(=O)[C@@H](O)[C@H](Cc1ccccc1)NC(=O)c1cccc(O)c1` yielded an IC50 of 9 nM.
The same measure for `Cc1cccc(C[C@H](NC(=O)c2c(C)ccc(O)c2C)[C@H](O)C(=O)N2C[C@@H](Cl)C[C@H]2C(=O)NC(C)(C)C)c1`: 3.4 nM.
The compound `Cc1cccc(C[C@H](NC(=O)c2cc(C)cc(O)c2C)[C@H](O)C(=O)N2C[C@@H](Cl)C[C@H]2C(=O)NC(C)(C)C)c1` had an IC50 of 1.3 nM.
In the case of `Cc1ccccc1C[C@H](NC(=O)c1c(C)ccc(O)c1C)[C@H](O)C(=O)N1C[C@@H](Cl)C[C@H]1C(=O)NC(C)(C)C` it was 34.3 nM.
In the case of `CC(C)(C)NC(=O)[C@@H]1C[C@H](Cl)CN1C(=O)[C@@H](O)[C@H](Cc1ccccc1)NC(=O)c1ccccc1I` it was 14 nM; in that of `Cc1c(O)cc(F)cc1C(=O)N[C@@H](Cc1ccc2ccccc2c1)[C@H](O)C(=O)N1C[C@@H](Cl)C[C@H]1C(=O)NC(C)(C)C`, 1.2 nM.
`Cc1cc(O)c(C)c(C(=O)N[C@@H](Cc2ccc(-c3ccccc3)cc2)[C@H](O)C(=O)N2C[C@@H](Cl)C[C@H]2C(=O)NC(C)(C)C)c1` gave a 50% inhibitory concentration (IC50) of 1.3 nM.

Values taken from ChEMBL document CHEMBL1135444, “Elucidating the inhibiting mode of AHPBA derivatives against HIV-1 protease and building predictive 3D-QSAR models” (J Med Chem, 2002).
